Results published in patent EP0300390A1, “Trifluoromethyl-alkoxy-anilin, process for their preparation and their use in the ice-colour technique” (HOECHST AKTIENGESELLSCHAFT, priority 1987, dated 1989).

Assay: AMES test (mutagenicity)
Type: cell-based

With `CCCCOc1ccc(C(F)(F)F)cc1N` [5-Trifluormethyl-2-n-butoxy-anilin] the AMES-Test was “nicht-mutagen”.
